Read-outs that look alike come from different tables or passages of the source.
Tests used:
Pry1 [1] = target: T1, Pry1 (Saccharomyces cerevisiae, UniProt P47032); assay: Microscale thermophoresis; details: His-tagged Pry1, N/A where there is no binding, mean ± SD of three experiments
T1 construct: made in house; host or cells: Escherichia coli BL21
T1 sequence (P47032 20-299): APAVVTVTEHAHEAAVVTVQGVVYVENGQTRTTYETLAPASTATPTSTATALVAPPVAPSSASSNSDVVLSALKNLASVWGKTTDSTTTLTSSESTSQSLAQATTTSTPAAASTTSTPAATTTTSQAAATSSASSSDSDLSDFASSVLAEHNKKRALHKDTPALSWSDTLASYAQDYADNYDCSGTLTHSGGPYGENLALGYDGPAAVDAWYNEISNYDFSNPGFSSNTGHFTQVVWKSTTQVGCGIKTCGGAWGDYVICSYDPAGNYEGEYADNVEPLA
Method: (§1) Microscale thermophoresis was performed using a Monolith NT.115 from Nanotemper Technologies (Munich, Germany) (Seidel et al., [2012]; Shang et al., [2012]; Zillner et al., [2012]). His-tagged protein (Pry1 or Na-ASP-2) was fluorescently labeled using the RED-tris-NTA His-tag protein labeling kit (Nanotemper Technologies). Labeled protein (Pry1 or Na-ASP-2) was subsequently added to serial dilution of unlabeled ligand (ascarosides or their fatty acid moieties) in binding buffer (20 mM Tris pH 7.5, 30 mM NaCl, 0.05% Triton X-100). Each sample was loaded into standard glass capillaries, and measurements were performed at 60% laser power setting. Dissociation constant Kd was obtained by plotting the normalized fluorescence (Fnorm) against the logarithm of ligand concentration. Experiments were performed in triplicates and the Kd model of the MO Affinity Analysis software (Nanotemper Technologies, Munich, Germany) was used for data fitting.
(§2) Figure 5 Na-ASP-2 selectively binds ascr#3 but not oscr#10. Binding of ascarosides and their fatty acid moieties by Pry1 and Na-ASP-2 as measured by microscale thermophoresis. (A,G) Palmitic acid; (B,H) ascr#3; (C,I) oscr#10; (D,J) (R)-8-hydroxynonanoic acid; (E,K) (R, E)-8-hydroxynon-2-enoic acid; (F,L) 9-hydroxynonanoic acid. Pry1 binds palmitic acid and free hydroxylated nanonoic acids with similar affinities but binds neither the ascarosides ascr#3 and oscr#10. Na-ASP-2 binds palmitic acid, ascr#3 and free hydroxylated nanonoic acids with similar affinities but not oscr#10. The Kd values are indicated in each figure with N/A (not applicable) where there is no binding. Data represent mean ± SD of three independent experiments.

Na-ASP-2 [2] = target: T2, Na-ASP-2 (Necator americanus, UniProt Q7Z1H1); assay: Microscale thermophoresis; assay type: binding
Method: as §1, §2

Na-ASP-2 [3] = target: T2, Na-ASP-2; assay: [3H]-palmitic acid radioligand binding and competition assay; details: for competition with [3H]-palmitic acid for binding to Na-ASP-2: 50 or 500 pmol unlabeled ligand vs 50 pmol [3H]-palmitic acid, 100 pmol Na-ASP-2
Method: (§3) The radioligand binding assay was performed as described previously (Im et al., [2005]; Choudhary and Schneiter, [2012]). Hundred pmol of purified untagged CAP protein (Na-ASP-2 or Pry1) in binding buffer (20 mM Tris, pH 7.5, 30 mM NaCl, 0.05% Triton X-100) was incubated for 1 h at 30 °C with different concentrations of either [^3H]-cholesterol or [^3H]-palmitic acid. Protein was removed from unbound ligand by adsorption to Q-sepharose beads (GE Healthcare, USA), the beads were washed, protein was eluted and the protein-bound radioligand was quantified by scintillation counting. For competition binding assays, specified concentrations of unlabeled cholesterol, palmitic acid or ligands, were included in the binding reaction. Non-specific binding was determined by performing the assays without the addition of protein. Statistical significance of data was analyzed by multiple t-test (GraphPad Prism, La Jolla, CA).
Figure 3 Na-ASP-2 binds both cholesterol and free palmitic acid. (A) Ligand binding of [^3H]-cholesterol to Na-ASP-2. Purified Na-ASP-2 (100 pmol) was incubated with increasing concentrations of [^3H]-cholesterol (100–400 pmol), in absence and presence of 400 pmol of unlabeled cholesterol (chol). The protein was separated from the unbound ligand by adsorption to an anion-exchange matrix and the protein-bound radioligand was quantified by scintillation counting. […] Data represent mean ± SD of 3 independent experiments. […] Binding of [^3H]-cholesterol (50 pmol) to Na-ASP-2 (100 pmol) was assessed in the presence of the indicated concentrations of unlabeled cholesterol (chol). […] Binding of [^3H]-palmitic acid (50 pmol) to Na-ASP-2 (100 pmol) was assessed in the presence of the indicated concentration of unlabeled palmitic acid (pal). […]
(§4) Figure 4 Binding of ligands to Na-ASP-2 and Pry1. […] Binding of [^3H]-cholesterol (50 pmol) to Na-ASP-2 (100 pmol) was assessed in the presence of (50 pmol and 500 pmol) of unlabeled ascarosides or fatty acid moieties (1-5) (B) Fatty acids moieties and ascr#3 compete with [^3H]-palmitic acid for binding to Na-ASP-2. […]

Pry1 [4] = target: T1, Pry1; assay: [3H]-palmitic acid competition binding assay; details: 100 pmol Pry1; for competition with [3H]-palmitic acid for binding to Pry1, excess ligand: excess unlabeled ligand (500 pmol) vs 50 pmol [3H]-palmitic acid; for competition with [3H]-palmitic acid for binding to Pry1: unlabeled ligand vs 50 pmol [3H]-palmitic acid
Method: as §3
Figure 4 Binding of ligands to Na-ASP-2 and Pry1. (A) Free fatty acids and ascarosides fail to compete with [^3H]-cholesterol for binding to Na-ASP-2. Binding of [^3H]-cholesterol (50 pmol) to Na-ASP-2 (100 pmol) was assessed in the presence of (50 pmol and 500 pmol) of unlabeled ascarosides or fatty acid moieties (1-5) (B) Fatty acids moieties and ascr#3 compete with [^3H]-palmitic acid for binding to Na-ASP-2. (C) Only fatty acids moieties compete [^3H]-palmitic acid for binding to Pry1. Competitive binding was tested with either 50 or 500 pmol of the unlabeled ligands and 50 pmol of [^3H]-palmitic acid for binding to 100 pmol purified Na-ASP-2 or Pry1. The ascarosides tested are (1) (ascr#3) and (2) (oscr#10) while the fatty acids are 3 [(R)-8-hydroxynonanoic acid], 4 [(R, E)-8-hydroxynon-2-enoic acid], and 5 (9-hydroxynonanoic acid). Data represent mean ± SD of 3 independent experiments. Asterisks denote statistical significance relative to the control containing only the radiolabeled ligand and either purified Na-ASP-2 or Pry1. (**p < 0.001; *p < 0.01). n.s., not significant.

Na-ASP-2 [5] = target: T2, Na-ASP-2; assay: [3H]-cholesterol radioligand binding and competition assay; details: for competition with [3H]-cholesterol for binding to Na-ASP-2: unlabeled ligand vs 50 pmol [3H]-cholesterol, 100 pmol Na-ASP-2
Method: as §3
Figure 3 Na-ASP-2 binds both cholesterol and free palmitic acid. (A) Ligand binding of [^3H]-cholesterol to Na-ASP-2. Purified Na-ASP-2 (100 pmol) was incubated with increasing concentrations of [^3H]-cholesterol (100–400 pmol), in absence and presence of 400 pmol of unlabeled cholesterol (chol). The protein was separated from the unbound ligand by adsorption to an anion-exchange matrix and the protein-bound radioligand was quantified by scintillation counting. […] Data represent mean ± SD of 3 independent experiments. (B) Competitive binding of unlabeled cholesterol (50 or 5,000 pmol) to Na-ASP-2. Binding of [^3H]-cholesterol (50 pmol) to Na-ASP-2 (100 pmol) was assessed in the presence of the indicated concentrations of unlabeled cholesterol (chol). Each data point is the average of duplicate assays and represents the amount of [^3H]-cholesterol bound relative to a control containing no unlabeled cholesterol. (C) Ligand binding of [^3H]-palmitic acid to Na-ASP-2. Purified Na-ASP-2 (100 pmol) was incubated with increasing concentrations of [^3H]-palmitic acid (100–400 pmol), in absence and presence of 400 pmol of unlabeled palmitic acid (pal). (D) Competitive binding of unlabeled palmitic acid (50 or 5,000 pmol) to Na-ASP-2. Binding of [^3H]-palmitic acid (50 pmol) to Na-ASP-2 (100 pmol) was assessed in the presence of the indicated concentration of unlabeled palmitic acid (pal). Each data point is the average of duplicate assays and represents the amount of [^3H]-palmitic acid bound relative to a control containing only labeled palmitic acid. […]
as §4

Bm-VAL-1 [6] = target: Bm-VAL-1; set-up: method as in earlier work; details: ref Kelleher et al., 2014, Darwiche et al., 2016, 2018, Asojo et al., read-out: cholesterol binding affinity; cited from earlier work
Sm-VAL-4 = target: Sm-VAL-4; set-up: method as in earlier work; details: ref Kelleher et al., 2014, Darwiche et al., 2016, 2018, Asojo et al., read-out: cholesterol binding affinity; cited from earlier work
Hp-VAL-4 = target: Hp-VAL-4; set-up: method as in earlier work; details: ref Kelleher et al., 2014, Darwiche et al., 2016, 2018, Asojo et al., read-out: cholesterol binding affinity; cited from earlier work
tablysin-15 = details: ref Kelleher et al., 2014, Darwiche et al., 2016, 2018, Asojo et al., read-out: Kd for palmitic acid; cited from earlier work
Bm-VAL-1 [7] = target: Bm-VAL-1; set-up: method as in earlier work; details: ref Kelleher et al., 2014, Darwiche et al., 2016, 2018, Asojo et al., read-out: Kd for palmitic acid; cited from earlier work
Pry1 [8] = target: Pry1; set-up: method as in earlier work; details: ref Kelleher et al., 2014, Darwiche et al., 2016, 2018, Asojo et al., read-out: Kd for palmitic acid; cited from earlier work

T2 sequence (Q7Z1H1 entry or part of it): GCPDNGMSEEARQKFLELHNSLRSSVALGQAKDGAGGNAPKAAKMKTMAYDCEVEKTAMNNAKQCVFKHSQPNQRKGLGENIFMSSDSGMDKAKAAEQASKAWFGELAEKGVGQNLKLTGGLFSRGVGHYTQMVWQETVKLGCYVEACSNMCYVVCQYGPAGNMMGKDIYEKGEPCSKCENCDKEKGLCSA

Compound `O=C(O)CCCCCCCCO` [9-hydroxynonanoic acid] has a Kd (Pry1 [1]; read-out: Kd) of 650 ± 1.7 µM and a Kd (Na-ASP-2 [2]) of 230 ± 2.5 µM.
In the case of `C[C@@H](O)CCCCCCC(=O)O` [(R)-8-hydroxynonanoic acid], the Kd (Pry1 [1]; read-out: Kd) is reported as 600 ± 1.9 µM and the Kd (Na-ASP-2 [2]) is reported as 500 ± 2.3 µM.
Compound `C[C@@H](O)CCCC/C=C/C(=O)O` [(R,E)-8-hydroxynon-2-enoic acid, (R, E)-8-hydroxynon-2-enoic acid] has a Kd (Pry1 [1]; read-out: Kd) of 900 ± 0.9 µM and a Kd (Na-ASP-2 [2]) of 290 ± 2 µM.
For `C[C@H](CCCC/C=C/C(=O)O)O[C@@H]1O[C@@H](C)[C@H](O)C[C@H]1O` [ascr#3], the “competition with [3H]-palmitic acid for binding to Na-ASP-2” value (Na-ASP-2 [3]) was “competed”, the Kd (Pry1 [1]) was “does not bind” and the “competition with [3H]-palmitic acid for binding to Pry1, excess ligand” value (Pry1 [4]) was “could not be competed”. The “competition with [3H]-palmitic acid for binding to Pry1” value (Pry1 [4]) was “neither ascr#3 (1) nor oscr#10 (2) bound”, the “competition with [3H]-cholesterol for binding to Na-ASP-2” value (“competition with [3H]-cholesterol” below) (Na-ASP-2 [5]) was “neither ascarosides [ascr#3 (1) and oscr#10 (2)] nor fatty acids (3-5) competed” and the Kd (Na-ASP-2 [2]) was 142 µM.
In the case of `CC(C)CCC[C@@H](C)[C@H]1CC[C@H]2[C@@H]3CC=C4C[C@@H](O)CC[C@]4(C)[C@H]3CC[C@]12C` [cholesterol], the Kd (Bm-VAL-1 [6]) is listed as 0.9 µM, the Kd (Sm-VAL-4) is listed as 2.4 µM and the Kd (Na-ASP-2 [5]) is listed as 2.1 µM. The “competition with [3H]-cholesterol” value (Na-ASP-2 [5]) was “reduced binding of the radioligand” and the Kd (Hp-VAL-4) was 1.53 µM.
In the case of `C[C@@H]1O[C@@H](OCCCCCCCCC(=O)O)[C@H](O)C[C@H]1O` [oscr#10], the Kd (Pry1 [1]) is reported as “does not bind”, the “competition with [3H]-palmitic acid for binding to Pry1, excess ligand” value (Pry1 [4]) is reported as “could not be competed” and the “competition with [3H]-palmitic acid for binding to Pry1” value (Pry1 [4]) is reported as “neither ascr#3 (1) nor oscr#10 (2) bound”. The “competition with [3H]-cholesterol” value (Na-ASP-2 [5]) was “neither ascarosides [ascr#3 (1) and oscr#10 (2)] nor fatty acids (3-5) competed” and the Kd (Na-ASP-2 [2]; microscale thermophoresis, His-tagged Na-ASP-2, N/A where there is no binding, mean ± SD of three experiments) was “does not bind”.
With `CCCCCCCCCCCCCCCC(=O)O` [palmitic acid, reference compound] the Kd (Na-ASP-2 [3]) was 95 µM, the “competition with [3H]-palmitic acid for binding to Na-ASP-2” value (Na-ASP-2 [3]) was “reduced” and the Kd (Pry1 [1]; read-out: Kd) was 120 ± 1.2 µM. The Kd (tablysin-15) was 94 µM, the Kd (Na-ASP-2 [2]) was 220 ± 1 µM and the Kd (Bm-VAL-1 [7]) was 83 µM. The Kd (Pry1 [8]) was 112 µM.

Source: PMC7773830, “Necator americanus Ancylostoma Secreted Protein-2 (Na-ASP-2) Binds an Ascaroside (ascr#3) in Its Fatty Acid Binding Site” (Frontiers in Chemistry, 2020)
